What follows are molecules tested against T1, Human HPK1, catalytic domain (Homo sapiens, UniProt Q92918) (assay: HPK1-SLP76 TR-FRET assay). Details: 75 pM HPK1, 10 uM ATP, 10 nM SLP76, 30 min compound pre-incubation.
T1 construct: purchased Carna
T1 sequence (Q92918 1-346): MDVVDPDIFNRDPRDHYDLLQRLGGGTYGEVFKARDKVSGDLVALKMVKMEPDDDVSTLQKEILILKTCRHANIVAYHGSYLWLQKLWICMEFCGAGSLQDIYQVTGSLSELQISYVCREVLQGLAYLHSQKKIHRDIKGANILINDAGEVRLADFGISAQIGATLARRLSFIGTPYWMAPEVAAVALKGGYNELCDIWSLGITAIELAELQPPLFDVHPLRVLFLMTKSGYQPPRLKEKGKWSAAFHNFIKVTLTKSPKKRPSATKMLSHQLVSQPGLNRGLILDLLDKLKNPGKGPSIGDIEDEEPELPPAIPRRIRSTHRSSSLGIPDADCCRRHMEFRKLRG
Format: biochemical

IC50 [nM] | Compound
0.19 | COc1cc2c(cc1Nc1ncc(C(N)=O)c(Nc3cccc4c3OC(C)(C)C4)n1)CN(C)CC2 [Example 7-14, 4-[(2,2-dimethyl-2,3-dihydro-1-benzofuran-7-yl)amino]-2-[(6-methoxy-2-methyl-1,2,3,4-tetrahydroisoquinolin-7-yl)amino]pyrimidine-5-carboxamide]
34.2 | COc1cc(N2CCNCC2)ccc1Nc1ncc(C(N)=O)c(Nc2ccccc2Br)n1 [Example 7-10, 4-[(2-bromophenyl)amino]-2-{[2-methoxy-4-(piperazin-1-yl)phenyl]amino}pyrimidine-5-carboxamide]
0.88 | COC(=O)c1ccccc1Nc1nc(Nc2cc3c(cc2OC)CCN(C)C3)ncc1C(N)=O [Example 7-94, methyl 2-({5-carbamoyl-2-[(6-methoxy-2-methyl-1,2,3,4-tetrahydroisoquinolin-7-yl)amino]pyrimidin-4-yl}amino)benzoate]
188 | NC(=O)c1cnc(Nc2ccc3c(c2)COC3=O)nc1Nc1ccccc1Br [Example 7-103, 4-[(2-bromopehnyl)amino]-2-[(1-oxo-1,3-dihydro-2-benzofuran-5-yl)amino]pyrimidine-5-carboxamide]
4.92 | COC[C@H]1CCC[C@H]1Nc1nc(Nc2cc3c(cc2OC)CCN(C)C3)ncc1C(N)=O [Example 26-28, 4-{[(1R,2S)-2-(methoxymethyl)cyclopentyl]amino}-2-[(6-methoxy-2-methyl-1,2,3,4-tetrahydroisoquinolin-7-yl)amino]pyrimidine-5-carboxamide]
6.05 | COc1cc2c(cc1Nc1ncc(C(N)=O)c(NCc3ccccc3)n1)CN(C)CC2 [Example 26-36, 4-(benzylamino)-2-[(6-methoxy-2-methyl-1,2,3,4-tetrahydroisoquinolin-7-yl)amino]pyrimidine-5-carboxamide]
63.8 | NC(=O)c1cnc(Nc2ccc3c(c2)C(=O)OCC3)nc1Nc1ccccc1Br [Example 7-106, 4-[(2-bromophenyl)amino]-2-[(1-oxo-3,4-dihydro-1H-2-benzopyran-7-yl)amino]pyrimidine-5-carboxamide]
2.74 | COc1cc2c(cc1Nc1ncc(C(N)=O)c(Nc3ccccc3C(=O)NC3CC3)n1)CN(C)CC2 [Example 7-118, 4-((2-(cyclopropylcarbamoyl)phenyl)a-mino)-2-((6-methoxy-2-methyl-1,2,3,4-tetrahydroisoquinolin-7-yl)amino)pyrimidine-5-carboxamide]
0.14 | COc1cc2c(cc1Nc1ncc(C(N)=O)c(N[C@@H]3CCCC[C@@H]3C)n1)CN(C)CC2 [Example 26-41, 2-[(6-methoxy-2-methyl-1,2,3,4-tetrahydroisoquinolin-7-yl)amino]-4-{[(1R,2S)-2-methylcyclohexyl]amino}pyrimidine-5-carboxamide]
24.6 | NC(=O)c1cnc(Nc2cccc3c2CCC3)nc1Nc1cccc2c1CCNC2=O [Example 25-34, 2-[(2,3-dihydro-1H-inden-4-yl)amino]-4-[(1-oxo-1,2,3,4-tetrahydroisoquinolin-5-yl)amino]pyrimidine-5-carboxamide]
0.22 | COc1cc2c(cc1Nc1ncc(C(N)=O)c(Nc3c(F)cccc3C(C)OC)n1)CN(C)CC2 (racemic) [Example 23-1, (RAC)-4-((2-fluoro-6-(1-methoxyethyl)phenyl)amino)-2-((6-methoxy-2-methyl-1,2,3,4-tetrahydroisoquinolin-7-yl)amino)pyrimidine-5-carboxamide]
6.24 | CC(C)n1cc(Nc2ncc(C(N)=O)c(Nc3cccc4c3CCNC4=O)n2)cn1 [Example 7-50, 4-[(1-oxo-1,2,3,4-tetrahydroisoquinolin-5-yl)amino]-2-{[1-(propan-2-yl)-1H-pyrazol-4-yl]amino}pyrimidine-5-carboxamide]
380 | COCCC(=O)N1CCc2cc(OC)c(Nc3ncc(C(N)=O)c(Nc4ccccc4Br)n3)cc2C1 [Example 12-4, 4-[(2-bromophenyl)amino]-2-{[6-methoxy-2-(3-methoxypropanoyl)-1,2,3,4-tetrahydroisoquinolin-7-yl]amino}pyrimidine-5-carboxamide]
1.96 | COc1cc2c(cc1Nc1ncc(C(N)=O)c(Nc3ccccc3Br)n1)CN(C(=O)C1(N(C)C)CCC1)CC2 [Example 12-7, 4-[(2-bromophenyl)amino]-2-({2-[1-(dimethylamino)cyclobutane-1-carbonyl]-6-methoxy-1,2,3,4-tetrahydroisoquinolin-7-yl}amino)pyrimidine-5-carboxamide]
1.23 | COc1cc2c(cc1Nc1ncc(C(N)=O)c(NCC3CCNCC3)n1)CN(C)CC2 [Example 26-72, 2-[(6-methoxy-2-methyl-1,2,3,4-tetrahydroisoquinolin-7-yl)amino]-4-{[(piperidin-4-yl)methyl]amino}pyrimidine-5-carboxamide]
0.34 | C#C[C@H]1CC[C@@H](Nc2nc(Nc3cc4c(cc3OC)CCN(C)C4)ncc2C(N)=O)CC1 [Example 26-39, 4-[(cis-4-ethynylcyclohexyl)amino]-2-[(6-methoxy-2-methyl-1,2,3,4-tetrahydroisoquinolin-7-yl)amino]pyrimidine-5-carboxamide]
777 | COc1cc2c(cc1Nc1ncc(C(N)=O)c(NCc3cnc4ccccn34)n1)CN(C)CC2 [Example 26-56, 4-{[(imidazo[1,2-a]pyridin-3-yl)methyl]amino}-2-[(6-methoxy-2-methyl-1,2,3,4-tetrahydroisoquinolin-7-yl)amino]pyrimidine-5-carboxamide]
176 | C[C@@H](Nc1ncc(C(N)=O)c(Nc2cccc3c2CCNC3=O)n1)c1ccc(F)cc1 [Example 25-8, 2-{[(1R)-1-(4-fluorophenyl)ethyl]amino}-4-[(1-oxo-1,2,3,4-tetrahydroisoquinolin-5-yl)amino]pyrimidine-5-carboxamide]
109 | COc1cc2c(cc1Nc1ncc(C(N)=O)c(N[C@H]3c4ccccc4C[C@H]3O)n1)CN(C)CC2 [Example 26-63, 4-{[(1S,2R)-2-hydroxy-2,3-dihydro-1H-inden-1-yl]amino}-2-[(6-methoxy-2-methyl-1,2,3,4-tetrahydroisoquinolin-7-yl)amino]pyrimidine-5-carboxamide]
1.64 | COc1cc2c(cc1Nc1ncc(C(N)=O)c(Nc3ccccc3CN)n1)CN(C)CC2 [Example 2-3, 4-{[2-(aminomethyl)phenyl]-amino}-2-[(6-methoxy-2-methy1-1,2,3,4-tetrahydroisoquinolin-7-yl)amino]pyrimidine-5-carboxamide]
345 | NC(=O)c1cnc(Nc2ccccc2)nc1Nc1ccccc1Br [Example 7-105, 4-[(2-bromophenyl)amino]-2-(phenylamino)pyrimidine-5-carboxamide]
3.08 | COc1cc2c(cc1Nc1ncc(C(N)=O)c(Nc3cn(C)nc3C3CC3)n1)CN(C)CC2 [Example 7-81, 4-((3-cyclopropyl-1-methyl-1H-pyrazol-4-yl)amino)-2-((6-methoxy-2-methyl-1,2,3,4-tetrahydroisoquinolin-7-yl)amino)pyrimidine-5-carboxamide]
0.82 | COc1cc2c(cc1Nc1ncc(C(N)=O)c(Nc3c(F)cccc3C(C)O)n1)CN(C)CC2 (racemic) [Example 23-2, (RAC)-4-((2-fluoro-6-(1-hydroxyethyl)phenyl)amino)-2-((6-methoxy-2-methyl-1,2,3,4-tetrahydroisoquinolin-7-yl)amino)pyrimidine-5-carboxamide]
346 | NC(=O)c1cnc(NC2(c3ccccc3F)CC2)nc1Nc1cccc2c1CCNC2=O [Example 25-23, 2-{[1-(2-fluorophenyl)cyclopropyl]amino}-4-[(1-oxo-1,2,3,4-tetrahydroisoquinolin-5-yl)amino]pyrimidine-5-carboxamide]
312 | COc1cc2c(cc1Nc1ncc(C(N)=O)c(Nc3ccccc3C[C@H](O)c3ccccc3)n1)CN(C)CC2 [Example 13-9, 4-({2-[(2S)-2-hydroxy-2-phenylethyl]phenyl}amino)-2-[(6-methoxy-2-methyl-1,2,3,4-tetrahydroisoquinolin-7-yl)amino]pyrimidine-5-carboxamide]
474 | NC(=O)c1cnc(Nc2ccc(C(F)(F)F)cc2)nc1Nc1cccc2c1CCNC2=O [Example 25-7, 4-[(1-oxo-1,2,3,4-tetrahydroisoquinolin-5-yl)amino]-2-{[4-(trifluoromethyl)phenyl]amino}pyrimidine-5-carboxamide]
105 | CCn1nc(C)cc1Nc1nc(Nc2cc3c(cc2OC)CCN(C)C3)ncc1C(N)=O [Example 7-79, 4-((1-ethyl-3-methyl-1H-pyrazol-5-yl)amino)-2-((6-methoxy-2-methyl-1,2,3,4-tetrahydroisoquinolin-7-yl)amino)pyrimidine-5-carboxamide]
43.2 | COc1cc2c(cc1Nc1ncc(C(N)=O)c(Nc3ccccc3Br)n1)CN(S(C)(=O)=O)CC2 [Example 10-5, 4-[(2-bromophenyl)amino]-2-{[6-methoxy-2-(methylsulfonyl)-1,2,3,4-tetrahydroisoquinolin-7-yl]amino}pyrimidine-5-carboxamide]
28.6 | COc1cc2c(cc1Nc1ncc(C(N)=O)c(NC3C4CCC3CNC4)n1)CN(C)CC2 (stereo not drawn) [Example 26-30, 4-[(3-azabicyclo[3.2.1]octan-8-yl)amino]-2-[(6-methoxy-2-methyl-1,2,3,4-tetrahydroisoquinolin-7-yl)amino]pyrimidine-5-carboxamide]
284 | COC(=O)N1CCc2cc(OC)c(Nc3ncc(C(N)=O)c(Nc4ccccc4Br)n3)cc2C1 [Example 12-12, methyl 7-({4-[(2-bromophenyl)amino]-5-carbamoylpyrimidin-2-yl}amino)-6-methoxy-3,4-dihydroisoquinoline-2(1H)-carboxylate]

From patent publication US20230416225A1, “DIAMINOPYRIMIDINE CARBOXAMIDE INHIBITORS OF HPK1” (MERCK SHARP & DOHME LLC, priority 2020, published 2023)
